Data set [1] can be described thus: Anion exchange chromatography (AEX) of siRNA before and after electroporation. Particulars: for effect of excipient on AEX profile of XD-08318 after electroporation: 5 ms per pulse. Format: physicochemical. Here is the method:
Anion exchange chromatography (AEX) was carried out on an Agilent 1100 HPLC using a […] PA200 column (Thermo Scientific). The column was equilibrated in 50 mM Tris pH 7.4, and 20 ng of each siRNA sample was prepared in a 100 μl HPLC vial for injection. The sample was injected and subjected to a gradient of 50 mM Tris pH 7.4 (mobile phase A) and 50 mM Tris, 1 M NaCl, pH 7.4 (mobile phase B) according to Tables 1 and 2, below. Electroporation is a common method for introducing nucleic acids into cells and other lipid structures such as exosomes. As an analytical method, siRNAs were analyzed by anion exchange chromatography (AEX), as described above, before and after electroporation. […] XD-08318 is a modified siRNA that contains a 5' terminal deoxyribose residue on the antisense strand, a combination of natural ribose and synthetic 2'-O-methyl ribose residues, and phosphorothioate linkages at the 3' ends of each strand (FIG. 2). Synthetic RNA XD-08318 was electroporated in the presence of several free radical scavengers and reducing agents as excipients.

In the next data set the test system is KRAS G12D transcript. Description: KRAS G12D transcript knockdown in Panc-1 cells. Format: cell-based, human. Particulars: FIG. 14, samples #9, #10 vs #4-8. As for the experimental part: XD-08318 was loaded into exosomes by electroporation in the presence or absence of free radical scavengers. As a control, XD-08318 was transfected into the human pancreatic cancer cell line Panc-1, which is heterozygous for the G12D mutant transcript of KRAS. […] As controls, in the absence of any transfection reagent, Panc-1 cells were incubated with a mixture of the siRNA and exosomes without electroporation (mix), siRNA only, exosomes alone (EV only), or in the presence of siRNA and exosomes that were electroporated individually (si EP+EV EP Mix). […] Next, XD-08318 was loaded into exosomes by electroporation at pulse code 42 (sample 4) and incubated with cells, resulting in a modest ˜30% repression of the target transcript.

The mark [2] stands for this setting: MaxCyte strong pulse code 66 (high field strength, high frequency).

The values that follow come from patent US20210395721A1, “METHODS TO IMPROVE POTENCY OF ELECTROPORATION” (Codiak BioSciences, Inc., priority 2018, published 2021).

On to `N[C@@H](CCC(=O)N[C@@H](CS)C(=O)NCC(=O)O)C(=O)O` [Glutathione], for which the “effect of excipient on AEX profile of XD-08318 after electroporation” value in data set [1] (Gene Pulser XCell (Bio-Rad), 800 V, 2 pulses) was “prevent a change in the AEX profile”; in data set [1] (Neon Transfection System, 2000 V, 8 pulses), “prevent a change in the AEX profile”. In addition, the “effect of excipient on AEX spectral shift of XD-08318 after electroporation” value in data set [1] (setting [2]) is listed as “prevented the spectral shift”.
Take `CSCC[C@H](N)C(=O)O` [L-Methionine]: the “knock-down by modified siRNA electroporated into exosomes in presence of the scavenger, compared to absence of free radical scavengers” value in the data set with KRAS G12D transcript is “increased knock-down”. The “effect of excipient on AEX spectral shift of XD-08318 after electroporation” value in data set [1] (setting [2]) is listed as “prevented the spectral shift”.
On to `N[C@@H](CS)C(=O)O` [L-cysteine], for which the “effect of excipient on AEX spectral shift of XD-08318 after electroporation” value is “prevented the spectral shift” in data set [1] (MaxCyte intermediate pulse code 63 (high field strength, low frequency)) and “prevented the spectral shift” in data set [1] (setting [2]).
